Measurements: PubChem BioAssay (NCI)
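Dose response: 5 concentrations. Exposure: 48 h. Format: 96-well plates. Endpoint: linear interpolation; highest concentration if not reached. The concentration for full growth arrest is given as TGI.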

Tests used:
Test in all cases: NCI anticancer screen, dose series, 48 h
LOX IMVI melanoma = system: LOX IMVI melanoma
OVCAR-4 ovarian = system: OVCAR-4 ovarian
OVCAR-8 ovarian = system: OVCAR-8 ovarian
SK-OV-3 ovarian = system: SK-OV-3 ovarian
OVCAR-5 ovarian = system: OVCAR-5 ovarian
A498 renal = system: A498 renal
A549 NSCLC = system: A549 NSCLC
SF-268 CNS = system: SF-268 CNS
HCT-116 colon = system: HCT-116 colon
UO-31 renal = system: UO-31 renal
ACHN renal = system: ACHN renal
NCI-H460 lung = system: NCI-H460 lung
HCT-15 colon = system: HCT-15 colon
U251 CNS = system: U251 CNS
NCI-H226 lung = system: NCI-H226 lung
SNB-75 CNS = system: SNB-75 CNS
SW-620 colon = system: SW-620 colon
RPMI-8226 leukemia = system: RPMI-8226 leukemia
MCF7 breast = system: MCF7 breast
MDA-MB-231 breast = system: MDA-MB-231 breast

Compound	TGI (LOX IMVI melanoma)	TGI (OVCAR-4 ovarian)	TGI (OVCAR-8 ovarian)	TGI (SK-OV-3 ovarian)	TGI (OVCAR-5 ovarian)	TGI (A498 renal)	TGI (A549 NSCLC)	TGI (SF-268 CNS)	TGI (HCT-116 colon)	TGI (UO-31 renal)	TGI (ACHN renal)	TGI (NCI-H460 lung)	TGI (HCT-15 colon)	TGI (U251 CNS)	TGI (NCI-H226 lung)	TGI (SNB-75 CNS)	TGI (SW-620 colon)	TGI (RPMI-8226 leukemia)	TGI (MCF7 breast)	TGI (MDA-MB-231 breast)
COC(=O)CCc1cccnc1/C=N/O	> 100 µM	> 100 µM	> 100 µM	> 100 µM	> 100 µM	> 100 µM	> 100 µM	> 100 µM	> 100 µM	> 100 µM	> 100 µM	> 100 µM	> 100 µM	> 100 µM	> 100 µM	> 100 µM	> 100 µM			
COc1cc(C)c(C)c(OC(=O)c2c(C)c(C)c(OC)c(C)c2OC)c1C	20.9 µM	> 100 µM	> 100 µM	57.2 µM	91.4 µM	45.9 µM	71.8 µM	56.2 µM	39 µM	> 100 µM	> 100 µM	20.4 µM	18.5 µM	21 µM	72.1 µM	36 µM	36 µM	81.5 µM		
CCCCCCCCCCCCn1[nH]c(C)c(C(=S)SCCCCCCCC)c1=O	> 100 µM	> 100 µM	> 88.1 µM	> 100 µM	> 100 µM	> 100 µM	> 100 µM	> 100 µM	> 100 µM	> 100 µM	> 100 µM	> 100 µM	> 100 µM	> 100 µM	> 94.8 µM	> 100 µM	> 62 µM	> 35.7 µM		
NC(=S)N/N=c1\cc(C(=O)Nc2ccc([N+](=O)[O-])cc2[N+](=O)[O-])oc2ccccc12	> 100 µM	> 100 µM	> 100 µM	> 100 µM	> 100 µM		> 100 µM	> 100 µM	> 100 µM	> 100 µM	> 100 µM	> 100 µM	> 100 µM	> 100 µM	> 100 µM	> 100 µM	> 100 µM		> 100 µM	> 100 µM
COc1ccc(N2C(=O)[C@@H]3[C@H](C2=O)c2[nH]c4ccccc4c2C2CCC(C(C)(C)C)C[C@@H]23)cc1 (some centres not stated)	> 58.6 µM		42.2 µM	44.2 µM	> 100 µM	64 µM	> 80.3 µM	> 100 µM	> 100 µM	> 78.4 µM	87.6 µM	> 100 µM	> 100 µM	49.1 µM	46.4 µM	38 µM	> 100 µM	> 100 µM		
CCCCNC(=O)CCN(C(=O)O)S(=O)(=O)c1ccc(NC(=O)c2ccccc2)cc1	34.6 µM	> 100 µM	> 100 µM	> 100 µM	> 100 µM	> 100 µM	> 100 µM	> 100 µM	> 100 µM	> 100 µM	> 100 µM	> 100 µM	> 100 µM	> 100 µM	> 100 µM	> 100 µM	29.2 µM	> 100 µM		
COc1ccc2c(c1)CCC1=C/C(=N\NC(N)=O)CCC12C (configuration not stated)	> 10 µM	> 10 µM	> 10 µM	> 10 µM			> 10 µM	> 10 µM	> 10 µM		> 10 µM		> 10 µM	> 10 µM		> 10 µM	> 10 µM	> 10 µM	> 10 µM	> 10 µM
CC(C)(Oc1ccc2c(=O)cc(-c3ccccc3)oc2c1)C(=O)Nc1c(Cl)cccc1Cl	> 100 µM		> 100 µM	> 100 µM	> 100 µM	> 100 µM	> 100 µM	> 100 µM	> 100 µM	> 100 µM		> 100 µM	> 100 µM	> 100 µM			> 100 µM	> 100 µM		
Brc1ccc2c(c1)C1C(CO2)C(c2ccccc2)=NN1c1ccccc1 (configuration not stated)	> 100 µM		> 100 µM	> 100 µM	> 100 µM	> 100 µM	> 100 µM	> 100 µM	> 100 µM	> 100 µM	> 100 µM	> 100 µM		> 100 µM		> 100 µM	> 100 µM	> 100 µM		
CC(=O)OC1CC[C@@]2(C)C(C1)CC(OC(C)=O)[C@@H]1C2CC(OC(C)=O)[C@]2(C)C(C(C)CC=C(c3ccc(Cl)cc3)c3ccc(Cl)cc3)CCC12 (some centres not stated)		> 100 µM	> 100 µM	> 100 µM	> 100 µM		> 100 µM	> 100 µM	> 100 µM	> 100 µM	> 100 µM	> 100 µM	> 100 µM	> 100 µM		> 100 µM	> 100 µM	56.8 µM	> 100 µM	> 100 µM
Nc1cc(N2CCOCC2)nc(=O)n1-c1ccc(Cl)cc1	> 100 µM		> 100 µM	> 100 µM	> 100 µM	> 100 µM	> 100 µM		> 100 µM	> 100 µM	> 100 µM	> 100 µM	> 100 µM	> 100 µM	> 100 µM	> 100 µM	> 100 µM	> 100 µM	> 100 µM	
COC(=O)c1ccccc1NC(=O)C(=O)CC(=O)CC(c1ccccc1)c1c(O)c2ccccc2oc1=O (configuration not stated)		> 100 µM	> 100 µM	> 100 µM	> 100 µM	> 100 µM	> 100 µM	> 100 µM	> 100 µM	> 100 µM	> 100 µM	> 100 µM					> 100 µM	> 100 µM		
C/C(CC(=O)NC1=CC=C(NC(=O)C/C(C)=N\Nc2ccccc2)CC1)=N/Nc1ccccc1	> 100 µM	> 100 µM	> 100 µM	> 100 µM	> 100 µM	> 100 µM	> 100 µM	> 100 µM	> 100 µM	> 100 µM	> 100 µM	> 100 µM	> 100 µM	> 100 µM	> 100 µM	> 100 µM		> 100 µM		
CCSC1=N/C(=C/c2ccccc2O)C(=O)N1	> 100 µM		> 100 µM	> 100 µM	> 100 µM		> 100 µM	> 100 µM	> 100 µM	> 100 µM	> 100 µM	> 100 µM	> 100 µM	> 100 µM	> 100 µM	72.1 µM	> 100 µM	> 100 µM	> 100 µM	> 100 µM
